Measured values from a melting point compilation (Tetko et al.; mined from patent text by program, amines drawn as free bases though some values may be those of a salt).

SMILES | melting point
CC(C)(C)OC(=O)CNC1Cc2ccccc2C1 | 54 to 55 °C
CCOc1cscc1C=O | 42 to 45 °C
CS(=O)(=O)c1ccc(C(=O)c2c(S(C)(=O)=O)noc2C2CC2)c(Cl)c1 | 150 °C
NC(=O)N1C(=O)/C(=C(\O)c2cccs2)c2cc(F)c(Cl)cc21 | 239 to 241 °C
CCOC(=O)c1cnc2c(F)cc(I)cc2c1O | 287 to 289 °C
CC1(C)CC(=NO)CC(=NO)C1C#N (stereo unspecified) | 139 to 140 °C
O=C1N(Cc2ccc(Br)cc2)c2ccccc2C12COc1cc3c(cc12)OCO3 (stereo unspecified) | 148 to 150 °C
COc1cc2c3c(c1O)CN(C)CC3c1ccccc1CC2 (stereo unspecified) | 173 to 174 °C
CC=CCn1c(=O)n(C2OC(CO)C(O)C2O)c2nc(N)[nH]c(=O)c21 (stereo unspecified) | 167 to 170 °C
COc1cc2c(cc1OC)-c1c(O)c(OC)cc3c1C(C2)CN(C(=O)C(F)(F)F)C3 (stereo unspecified) | 210 to 217 °C
CCOC(=O)CCc1cn(Cc2ccc(OCc3ccccc3)cc2)nc1OCc1ccc(OCc2ccccc2)cc1 | 98 to 99 °C
COC(C(N)=O)(C(N)=O)c1ccc(Cl)c(Cl)c1 | 211 to 213 °C
Cc1ccc(CC2CCN(C(=O)C(=O)O)CC2)cc1 | 133 to 135 °C
NC(=NOCC1CC1)c1c(F)cccc1C(F)(F)F | 63 to 64 °C
O=C(NC(=O)c1c(Cl)cccc1Cl)Nc1cc(-c2ccc(-c3ccccc3)cc2)on1 | 225 to 227 °C
CC(C)(C)c1ccc(C(=O)Nc2cn3c4c(ccc3n2)OCC4)cn1 | 246 to 248 °C
NC1=NS(=O)N=C1NCCCN(Cc1ccncc1)c1ccccn1 (stereo unspecified) | 103 to 110 °C
O=C(O)c1ccc(OCCF)cc1 | 135 °C
CON1C(C)(C)CC(OC(=O)CCc2cc(-n3nc4ccc(Cl)cc4n3)c(O)c(C(C)(C)C)c2)CC1(C)C | 132 to 137 °C
Cn1ncc2c1CS(=O)(=O)c1cn[nH]c1-2 | > 270 °C
Cn1ncnc1COc1nn2c(-c3ccccc3F)nncc2c1C(C)(C)C | 128 °C

SMILES | melting point
CC(C)(C)OC(=O)NCCCCC(=O)Nc1cc(C(=O)O)ccc1Cl | 203 °C
COc1ccc(N2CCN(c3c(C)c(C)c4c(c3C3CC3)CC(C)(C)O4)CC2)cc1 | 121 to 122 °C
CCCCCCc1ccc(O)c(C(=O)Nc2ccc([N+](=O)[O-])cc2)c1 | 154 to 155 °C
O=C(c1ccc(-c2ccccc2)cc1)c1ccc2n1Cc1ccccc1N(C(=O)COc1ccc(Cl)cc1)C2 | 155 to 157 °C
CC(=NOC(C)C)c1ccc2c(c1)ncn2-c1cccc(-c2cccnc2)c1 | 77 to 80 °C
COc1ccc(-n2c(-c3cc(-c4ccccc4)c(N4CCOCC4)s3)nc3ccccc3c2=O)cc1 | 164 to 165 °C
CCOC(=O)c1ccc(OCC(=O)O)cc1 | 129 to 130 °C
O=C1CC(=O)C2C3C=CC(CC3)C12 (stereo unspecified) | 264 °C
CON1CCC2(CC1)SC(=O)C(c1c(C)cc(C)cc1C)=C2O | 67 to 71 °C
COc1ccc(CC(=S)N2CCOCC2)cc1 | 145 to 147 °C
CC(=O)OCCn1ccc(=O)c(OCc2ccccc2)c1C(OC(C)=O)c1cccc(F)c1 (stereo unspecified) | 148 to 149 °C
O=C(O)c1c[nH]c2cc(C3CC3)nn2c1=O | 275 to 278 °C
Cc1nnc(S(=O)(=O)C(Br)(Br)Br)s1 | 169 to 173 °C
CCCn1c(=O)c2[nH]c(C3CCCC3)nc2n(CCc2ccc(N)cc2)c1=O | 248 to 250 °C
N#CCc1ccc(NC(=O)OCc2cccnc2)cc1 | 157 to 162 °C
CCOC(=O)c1ncn2c1CN=C(c1ccccc1)c1cc(Br)ccc1-2 | 210 to 212 °C
Cc1cc(C)cc(Sc2c(C(C)C)nc(C=NN)n2C)c1 | 118 to 119 °C
O=c1[nH]c2c(c(=O)[nH]1)N=CCN2CCCCN1CCC(OC(c2ccccc2)c2ccccc2)CC1 | 157 to 159 °C
CC/C=C\CCCCCCCCCCOc1ccc(C(C)=O)o1 | 36 to 38 °C
COc1cc(OC)c(C(=O)CCCCCl)cc1NC(=O)Nc1ccc(C(F)(F)F)cc1 | 154 to 156 °C
